Results reported in publication PMC13401508 (Pharmacological research, 2026).
“Also recorded” adds a separate entry of the source.

Key:
[1] = tested on: HS5, RWPE-1, C4–2B, PC3-ML, ARCaP-M and RM1-BM cells; assay: Colony formation (clonal) assay; assay type: cell-based, human and murine; details: 50 μM, six repeated doses over a two-week period, tumor and non-tumor cells
Procedure: 200 cells/well were seeded in triplicate in 6-well plates. […] The colonies were fixed with ice-cold Methanol and stained with 0.5% crystal violet and counted.
Fig. 1. Primary characterization of IVMT-Rx-4. A) Chemical structure (upper panel) and synthesis scheme (lower panel). […] All proteins were extracted, and Western blotting was performed immediately after heating. Quantifications were obtained in the absence (control) or presence of IVMT-Rx-4 and values are presented as percentage of RT (room temperature) normalized for the experimental groups (control, IVMT-Rx-4). SOD (Superoxide dismutase) was used as an endogenous control. […] Colonies were stained with crystal violet and counted (n = 3 ± SD; ns: non-significant). […] Invaded cells were stained with crystal violet. Top panel: representative photograph of invaded cells under different experimental settings. Bottom panel: graphical representation of number of invaded cells/field for different cell lines (n = 3 ± SD; * p < 0.05).

[2] = Stability in liver microsomes with NADPH and UDPGA; assay type: in vitro ADME; details: liver microsomes; all species (human, monkey, dog, rat, mouse), NADPH and UDPGA added; read-out: t½ in liver microsomes
Procedure: Test samples were incubated at 37 °C, and Verapamil was used as a positive control. Samples were drawn from the incubation solution at different timepoints, centrifuged, then diluted with ultra-pure H20 and analyzed via LC-MS/MS. The natural logarithm of the remaining parent drug at each timepoint was plotted against incubation time, and the following equation was used to calculate the in vitro half-life:
in vitro t1/2 = -(0.693/k), where k is the rate constant.

[3] = target: T1, CYP2E1 (Homo sapiens, UniProt P05181); assay: Drug-substrate based CYP inhibition, 2E1; assay type: in vitro ADME; details: human liver microsomes
T1 construct: in the presence of human liver microsomes; from tissue; host or cells: human liver microsomes
T1 sequence (P05181 whole entry): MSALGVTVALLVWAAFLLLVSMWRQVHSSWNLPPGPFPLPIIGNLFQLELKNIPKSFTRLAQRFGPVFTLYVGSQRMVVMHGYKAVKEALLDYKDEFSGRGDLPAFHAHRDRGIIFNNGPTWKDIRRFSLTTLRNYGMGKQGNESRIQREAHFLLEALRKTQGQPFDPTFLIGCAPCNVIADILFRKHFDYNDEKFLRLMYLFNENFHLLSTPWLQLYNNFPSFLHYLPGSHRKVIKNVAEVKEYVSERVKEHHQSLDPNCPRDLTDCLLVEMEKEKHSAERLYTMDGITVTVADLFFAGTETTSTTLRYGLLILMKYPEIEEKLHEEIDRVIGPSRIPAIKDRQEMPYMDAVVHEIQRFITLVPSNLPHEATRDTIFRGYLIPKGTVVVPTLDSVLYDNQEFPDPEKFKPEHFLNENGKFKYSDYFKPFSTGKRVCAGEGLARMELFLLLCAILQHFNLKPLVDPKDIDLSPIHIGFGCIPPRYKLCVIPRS
Procedure: (§1) IVMT-Rx-4 was incubated with selective probe substrates of each CYP isoform in the presence of human liver microsomes. The formation of metabolite was quantified using LC-MS/MS methods. The extent of inhibition was assessed by calculating the remaining enzyme activity and percent inhibition based on analyte-to-internal standard area ratios, using the following equations:
(§2) Area Ratio = Peak AreaAnalyte / Peak AreaInternal Standard
(§3) Remaining Activity (%) = Area Ratiotest compound / Area Ratiovehicle ×100
(§4) Inhibition (%) = 100 ̶ Remaining Activity (%)

[4] = target: T2, CYP3A4 (Homo sapiens, UniProt P08684); assay: Drug-substrate based CYP inhibition, 3A4; assay type: in vitro ADME; details: human liver microsomes
T2 construct: in the presence of human liver microsomes; from tissue; host or cells: human liver microsomes
T2 sequence (P08684 whole entry): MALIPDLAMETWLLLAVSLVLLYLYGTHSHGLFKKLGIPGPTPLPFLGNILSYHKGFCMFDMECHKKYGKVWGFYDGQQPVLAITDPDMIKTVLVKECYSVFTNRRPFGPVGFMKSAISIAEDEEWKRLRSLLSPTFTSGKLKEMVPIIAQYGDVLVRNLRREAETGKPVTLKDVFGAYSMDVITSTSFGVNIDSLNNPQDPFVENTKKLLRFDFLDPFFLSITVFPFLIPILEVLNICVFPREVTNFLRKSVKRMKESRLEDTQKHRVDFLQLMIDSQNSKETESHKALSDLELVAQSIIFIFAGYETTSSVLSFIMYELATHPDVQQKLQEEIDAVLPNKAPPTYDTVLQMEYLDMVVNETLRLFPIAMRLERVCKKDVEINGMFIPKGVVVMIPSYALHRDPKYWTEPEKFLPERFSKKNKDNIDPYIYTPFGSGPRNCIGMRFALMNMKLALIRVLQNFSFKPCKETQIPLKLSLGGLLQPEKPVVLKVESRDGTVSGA
Procedure: as §1, §2, §3, §4

[5] = target: T2, CYP3A4; assay: Time dependent CYP inhibition (TDI); assay type: in vitro ADME; details: human liver microsomes, with or without NADPH
Procedure: Then, the specific CYP3A4 substrate was added, and aliquots were collected at various time points. Samples were then diluted with ultra-pure water and analyzed by LC-MS/MS. Area ratio and remaining Activity (%) were calculated as above and IC50 values was calculated using Excel XLfit 5.3.1.3.

[6] = Pharmacokinetic studies, single dose IV, PO, SC, IP; assay type: in vivo, CD1 mice
Procedure: CD1 mice were randomly grouped to 4 groups (n=3 per group). […] Further, 20-µL blood samples were collected from a capillary in the retro-orbital plexus at pre-determined time intervals, placed into heparinized tubes, and immediately centrifuged (2500 × g, 15 min, 4 °C). The plasma was separated and kept frozen at −80 °C until analysis.
Then the samples were vortexed for 30 s. After centrifugation at 4000 rpm for 15 min at 4 °C, the supernatant was diluted 3 times with water.5 µL of the diluted supernatant was injected into the Shimadzu LC/MS/MS system with a Phenomenex Kinetex C18 column (2.1 mm × 50 mm, 5 µm, 100 Å ). The samples were chromatographed using a gradient mobile phase consisting of 95% water (0.1% formic acid)– 95% acetonitrile (0.1% formic acid), delivered at a flow rate of 0.6 mL/min.

[7] = tested on: CXCL5; assay: CXCL5 mRNA by qRT-PCR in murine BM-MSCs (WT and mda-9 KO); assay type: cell-based, C57BL/6 mice; details: murine PDGF-AA 10 ng/ML, 25 μM, 24 hrs
Procedure: Total bone marrow cells were collected from 6 to 8 weeks male MDA-9/Syntenin^WT (mda-9^WT) and global MDA-9/Syntenin knockout (mda-9^−/−) mice as previously described in Das et al.. mda-9^WT and mda-9^−/− bone marrow derived mesenchymal stromal cells were isolated using a previously outlined protocol.
Fig. 3. […] CXCL5 mRNA expression was measured by qRT-PCR. […] Secreted CXCL5 in CM was measured by ELISA (n = 3 ± SD; * p < 0.05). […] CXCL5 mRNA expression was measured by qRT-PCR (n = 3 ± SD; * p < 0.05).

[8] = tested on: RM1-BM-Luc cells; assay: Combination and survival study, RM1-BM-Luc syngeneic model; assay type: in vivo, C57BL/6 mice; details: RM1-BM-Luc in C57BL/6, day 14, IVMT-Rx-4 30 mg/kg and/or Docetaxel 5 mg/kg 3X a week for two weeks
Procedure: (§5) Both syngeneic (C57BL/6) and athymic nude mice were used for survival studies. Tumor cells (RM1-BM-Luc or PC3-ML-Luc) were injected intracardially in a cohort of 40 animals. […] In the combination groups, both regimens were administered 3X a week for two-weeks at the same dose as a single therapy. Animals were imaged periodically and maintained until euthanization was required.
(§6) Fig. 5. […] A and B) RM1-BM-Luc (A) or PC3-ML-Luc (B) cells were implanted I.C. in C57BL/6 and athymic nude mice, respectively. […] BLI images were used to detect bone metastases (the percentage incidence of bone metastases in animals was calculated at a single time point, day 14). Values are presented at the bottom panel of the respective group (red, number of animals positive for metastasis and black, total number of experimental animals). C and D) Animals were kept until mandated euthanasia based on IACUC guidelines, considered as disease associated death. The Kaplan–Meier survival curves were generated using GraphPad in both models as described in (A) and (B), respectively. E and F) Log-rank test was performed and values between different experimental groups are presented.

[9] = tested on: PC3-ML-Luc cells; assay: Combination and survival study, PC3-ML-Luc model; assay type: in vivo; details: PC3-ML-Luc in athymic nude mice, day 14, IVMT-Rx-4 30 mg/kg and/or Docetaxel 5 mg/kg 3X a week for two weeks
Procedure: as §5, §6

[10] = Visible toxicity in animals; details: in vivo

Cc1cc(NC(=O)CCc2nnc(-c3ccccc3)o2)c(C)cc1N [IVMT-Rx-4]
cell proliferation (colony formation) [1]: did not inhibit cell proliferation | half-life [2]: > 210 min | IC50 [3]: ~8 µM | IC50 [4]: ~10 µM | Time-dependent inhibition (TDI), CYP3A4 [5]: no time-dependent inhibition; also recorded: No TDI | Tmax ([6]; CD1, mouse, plasma, 10 mg/kg, all non-intravenous routes): ≤ 30 min | half-life ([6]; CD1, mouse, plasma, ip, 10 mg/kg, IP 10 mg/kg, read-out: Plasma half-life (converted)): 61.2 min | half-life ([6]; CD1, mouse, plasma, iv, 3 mg/kg, IV 3 mg/kg, mean of 3 mice, read-out: T1/2 (plasma half-life) (converted)): 27 min | half-life ([6]; CD1, mouse, plasma, po, 10 mg/kg, PO 10 mg/kg, read-out: Plasma half-life (converted)): 82.2 min | half-life ([6]; CD1, mouse, plasma, sc, 10 mg/kg, SC 10 mg/kg, read-out: Plasma half-life (converted)): 41.4 min | Maximum plasma concentration (Cmax) ([6]; IP 10 mg/kg): 1012 ng/mL | time to reach Cmax (Tmax) ([6]; IP 10 mg/kg): 15 min | time after which plasma levels became undetectable ([6]; IV 3 mg/kg): 4 h | Maximum plasma concentration (Cmax) ([6]; PO 10 mg/kg): 2047 ng/mL | time to reach Cmax (Tmax) ([6]; PO 10 mg/kg): 15 min | time after which plasma levels became undetectable ([6]; PO, SC and IP routes, 10 mg/kg): 8 h | Maximum plasma concentration (Cmax) ([6]; SC 10 mg/kg): 1017 ng/mL | time to reach Cmax (Tmax) ([6]; SC 10 mg/kg): 30 min | CXCL5 mRNA expression ([7]; mBM-MSC WT): CXCL5 suppression occurred exclusively in mBM-MSC^WT | CXCL5 mRNA expression ([7]; mBM-MSC mda-9 KO): not in mBM-MSC^mda−9 KO cells | bone metastases, Incident/Total number tested [8]: 3/8 | bone metastases, Incident/Total number tested [9]: 1/8 | visible toxicity in animals [10]: without provoking any visible toxicity
